Assay results reported in paper PMC10879537 (Nature Communications, 2024).
Values joined by “and” are separate entries in the source; they are usually repeats but may differ in a detail not shown here. Equal entries are not always repeated. Where two headings read alike, the source gives them in different places.

Columns and labels:
GX_P2V [1] = assay: organism not typed; type: cell-based, Guangxi pangolin-CoV (GX_P2V); conditions: for inhibition at 0.193125 µM / inhibition at 0.39 µM / inhibition at 0.49485 µM / inhibition at 0.79588 µM / inhibition at 0.193 µM / inhibition at 0.495 µM / inhibition at 0.796 µM / inhibition at 1.097 µM / inhibition at 1.398 µM / inhibition at 1.699 µM / inhibition at 0.78 µM / inhibition at 1.09691 µM / inhibition at 1.39794 µM / inhibition at 1.69897 µM: Vero C1008, 48 h, read-out: Percentage of Inhibition (%)
Vero E6 cells = assay: cells; conditions: Chlorocebus sabaeus, Vero C1008, 48 h, read-out: Cytoxicity (%)
[2] = tested on: SARS-CoV-2 pseudotyped virus; assay: microbe, parasite or virus in culture; type: cell-based; conditions: read-out: EC50 SARS-CoV-2pseudotypedvirus
[3] = tested on: SARS-CoV-2 live virus (SARS-CoV-2/WH-09/human/2020/CHN); assay: microbe, parasite or virus in culture; type: cell-based
PEDV strain CV777 = assay: microbe, parasite or virus in culture; type: cell-based, porcine epidemic diarrhea virus (PEDV); conditions: read-out: EC50 against PEDV
[4] = tested on: SADS-CoV strain CN/GDWT/2017; assay: cells; type: cell-based, swine acute diarrhoea syndrome coronavirus (SADS-CoV); conditions: read-out: EC50 against SADS-CoV
[5] = tested on: SARS-CoV pseudotyped virus; assay: microbe, parasite or virus in culture; type: cell-based
[6] = tested on: MERS-CoV pseudotyped virus; assay: microbe, parasite or virus in culture; type: cell-based; conditions: read-out: EC50 against MERS-CoV pseudotyped virus
GX_P2V [7] = assay: organism not typed; type: cell-based, Guangxi pangolin-CoV (GX_P2V)
SARS-CoV-2 trVLP [8] = type: cell-based
SARS-CoV-2 trVLP [9] = conditions: read-out: EC50 SARS-CoV-2 trVLP
SARS-CoV-2 trVLP [10] = assay: microbe, parasite or virus in culture; conditions: Severe acute respiratory syndrome coronavirus 2, read-out: EC50 against SARS-CoV-2 trVLP
[11] = Vero C1008, read-out: EC50 against GX_P2V

NCCc1ccc(O)c(O)c1 [Compound 4, dopamine, reference compound]
Antiviral activity (bioactivity) in dose-response analysis (GX_P2V [1]): do not
inhibition at 0.193125 µM (GX_P2V [1]): 46.7%
inhibition at 0.39 µM (GX_P2V [1]): 33.8%
inhibition at 0.49485 µM (GX_P2V [1]): 92.6%
inhibition at 0.79588 µM (GX_P2V [1]): 41.1%
cytotoxicity at 0.49485 µM (Vero E6 cells): 23.1%
cytotoxicity at 0.78 µM (Vero E6 cells): 31.1%
cytotoxicity at 1.69897 µM (Vero E6 cells): 10.6%

isotetrandrine
Percentage of Inhibition (%) (GX_P2V [1]): 100%
EC50 (GX_P2V [1]; read-out: EC50 GX_P2V): 7.43 µM
EC50 [2]: 7.32 µM
EC50 ([3]; read-out: SARS-CoV-2 (Vero E6) EC50): 4.47 µM
EC50 (PEDV strain CV777): 1.67 µM
EC50 [4]: 3.67 µM
Percentage of Inhibition (%) [5]: 83.000% and 63.000%
EC50 ([5]; read-out: EC50 against SARS-CoV pseudotyped virus): 4.77 µM
EC50 [6]: 3.31 µM
Time of addition of anti-GX_P2V activity, Entry (GX_P2V [7]): 64.671 and 52.909 and 54.392
Time of addition of anti-GX_P2V activity, Full-time (GX_P2V [7]): 95.271 and 94.111 and 93.848
Time of addition of anti-GX_P2V activity, Post-entry (GX_P2V [7]): 79.054 and 80.217 and 78.230
Time of addition of anti-SARS-CoV-2 trVLPs activity, Full-time (SARS-CoV-2 trVLP [8]): 69.205 and 66.812 and 64.054
Time of addition of anti-SARS-CoV-2 trVLPs activity, Post-entry (SARS-CoV-2 trVLP [8]): 57.048 and 54.613 and 56.353
EC50 (SARS-CoV-2 trVLP [9]): 2.82 µM

CCC(CC)COC(=O)[C@H](C)N[P@](=O)(OC[C@H]1O[C@@](C#N)(c2ccc3c(N)ncnn23)[C@H](O)[C@@H]1O)Oc1ccccc1 [Remdesivir (30), remdesivir, reference compound]
inhibition at 0.193 µM (GX_P2V [1]): 91.6%
inhibition at 0.495 µM (GX_P2V [1]): 41.5%
inhibition at 0.796 µM (GX_P2V [1]): 90.9%
inhibition at 1.097 µM (GX_P2V [1]): 99.8%
inhibition at 1.398 µM (GX_P2V [1]): 100%
inhibition at 1.699 µM (GX_P2V [1]): 100%
EC50 (GX_P2V [1]; [11]): 1.64 µM
EC50 ([3]; Severe acute respiratory syndrome coronavirus 2, Vero C1008, read-out: SARS-CoV-2 (Vero E6) EC50): 2.19 µM
cytotoxicity at 0.796 µM (Vero E6 cells): 6.65%
cytotoxicity at 1.097 µM (Vero E6 cells): 10.7%
cytotoxicity at 1.398 µM (Vero E6 cells): 9.43%
cytotoxicity at 1.699 µM (Vero E6 cells): 12.3%
EC50 (SARS-CoV-2 trVLP [10]): 0.11 µM

Oc1ccc(C[C@@H]2NCCc3cc(O)c(O)cc32)cc1 [Compound 6, norcoclaurine]
inhibition at 0.39 µM (GX_P2V [1]): 55.7%
inhibition at 0.78 µM (GX_P2V [1]): 83.5%
inhibition at 0.79588 µM (GX_P2V [1]): 68.5%
cytotoxicity at 0.193125 µM (Vero E6 cells): 41.2%
cytotoxicity at 0.39 µM (Vero E6 cells): 28.8%
cytotoxicity at 0.49485 µM (Vero E6 cells): 9.98%
cytotoxicity at 0.79588 µM (Vero E6 cells): 52.9%
cytotoxicity at 1.09691 µM (Vero E6 cells): 10.9%

COc1cc2c(cc1O)[C@@H]1Cc3ccc(OC)c(O)c3CN1CC2 [(S)-Scoulerine]
inhibition at 0.49485 µM (GX_P2V [1]): 24.5%
cytotoxicity at 0.193125 µM (Vero E6 cells): 25%
cytotoxicity at 0.39 µM (Vero E6 cells): 27.5%
cytotoxicity at 0.49485 µM (Vero E6 cells): 25.7%
cytotoxicity at 1.09691 µM (Vero E6 cells): 33.9%
cytotoxicity at 1.69897 µM (Vero E6 cells): 34%

COc1cc(C[C@H]2c3cc(OC)c(OC)c(OC)c3CCN2C)c(Oc2cc3c(cc2OC)-c2c(OC)c(OC)c(OC)c4c2[C@H](C3)N(C)CC4)cc1OC [Methoxyadiantifoline (37), methoxyadiantifoline]
Percentage of Inhibition (%) (GX_P2V [1]): 100.000%

COc1ccc2cc1Oc1ccc(cc1)CC1c3cc(c(OC)cc3CCN1C)Oc1c(OC)c(OC)c(O)c3c1C(C2)N(C)CC3 (stereo not drawn) [Thalidezine (35), thalidezine]
inhibition at 0.495 µM (GX_P2V [1]): 53.4%
inhibition at 0.796 µM (GX_P2V [1]): 99.8%
inhibition at 1.097 µM (GX_P2V [1]): 100%
inhibition at 1.398 µM (GX_P2V [1]): 100%
inhibition at 1.699 µM (GX_P2V [1]): 100%
EC50 (GX_P2V [1]; [11]): 2.74 µM
EC50 (SARS-CoV-2 trVLP [10]): 4.37 µM

COc1ccc2cc3[n+](cc2c1OC)CCc1cc2c(cc1-3)OCO2 [berberine (2), berberine, reference compound]
inhibition at 0.49485 µM (GX_P2V [1]): 52.1%
cytotoxicity at 0.193125 µM (Vero E6 cells): 7.94%
cytotoxicity at 0.49485 µM (Vero E6 cells): 11.2%

COc1ccc(C[C@H]2c3cc(O)c(OC)cc3CCN2C)cc1O [Compound 12, reticuline]
inhibition at 0.39 µM (GX_P2V [1]): 81.7%
inhibition at 0.49485 µM (GX_P2V [1]): 27.4%
inhibition at 0.78 µM (GX_P2V [1]): 60%
inhibition at 0.79588 µM (GX_P2V [1]): 65.7%
inhibition at 1.09691 µM (GX_P2V [1]): 49.6%
inhibition at 1.39794 µM (GX_P2V [1]): 28.1%

COc1ccc2c(c1O)-c1c(O)c(OC)cc3c1[C@H](C2)N(C)CC3 [(S)-corytuberine]
inhibition at 0.39 µM (GX_P2V [1]): 54.6%
inhibition at 0.78 µM (GX_P2V [1]): 42.8%

COc1ccc2c(c1O)-c1c(O)c(OC)cc3c1[C@H](C2)[N+](C)(C)CC3 [Magnoflorine]
inhibition at 0.79588 µM (GX_P2V [1]): 34.7%
cytotoxicity at 0.193125 µM (Vero E6 cells): 3.29%
cytotoxicity at 0.39 µM (Vero E6 cells): 1.03%
cytotoxicity at 0.49485 µM (Vero E6 cells): 8.84%
cytotoxicity at 0.79588 µM (Vero E6 cells): 10.2%
cytotoxicity at 1.09691 µM (Vero E6 cells): 12.2%
cytotoxicity at 1.39794 µM (Vero E6 cells): 15.3%
cytotoxicity at 1.69897 µM (Vero E6 cells): 14.6%

COc1cc2c(cc1O)C(Cc1ccc(O)cc1)NCC2 (stereo not drawn) [Compound 11, coclaurine]
inhibition at 0.49485 µM (GX_P2V [1]): 33.2%
inhibition at 1.69897 µM (GX_P2V [1]): 28.7%
cytotoxicity at 0.193125 µM (Vero E6 cells): 8.1%

COc1cc2c(cc1OC)C(Cc1ccc(O)c(Oc3cc4c(cc3OC)CCN(C)C4Cc3ccc(O)cc3)c1)N(C)CC2 (stereo not drawn) [Liensinine (34), liensinine]
inhibition at 0.193 µM (GX_P2V [1]): 93.8%
inhibition at 0.495 µM (GX_P2V [1]): 84.2%
inhibition at 0.78 µM (GX_P2V [1]): 68.4%
inhibition at 0.796 µM (GX_P2V [1]): 74.4%
inhibition at 1.097 µM (GX_P2V [1]): 87.3%
inhibition at 1.398 µM (GX_P2V [1]): 100%
inhibition at 1.699 µM (GX_P2V [1]): 100%
EC50 (GX_P2V [1]; [11]): 0.7 µM
EC50 (SARS-CoV-2 trVLP [10]): 3.09 µM

COc1cc2c(cc1O)-c1cc3ccc(OC)c(OC)c3c[n+]1CC2 [Columbamine]
inhibition at 1.09691 µM (GX_P2V [1]): 49.9%
inhibition at 1.39794 µM (GX_P2V [1]): 66.7%
cytotoxicity at 0.79588 µM (Vero E6 cells): 34.5%

COc1cc2c(cc1O)[C@H](Cc1ccc(O)cc1)N(C)CC2 [(S)-N-Methylcolaurine]
inhibition at 0.193125 µM (GX_P2V [1]): 17.4%
inhibition at 0.78 µM (GX_P2V [1]): 15.1%
inhibition at 0.79588 µM (GX_P2V [1]): 91.1%
inhibition at 1.09691 µM (GX_P2V [1]): 52.6%
inhibition at 1.69897 µM (GX_P2V [1]): 20.9%
cytotoxicity at 0.193125 µM (Vero E6 cells): 6.97%
cytotoxicity at 0.78 µM (Vero E6 cells): 47%
cytotoxicity at 1.39794 µM (Vero E6 cells): 2.6%

COc1cc2c3cc1Oc1cc(ccc1O)C[C@@H]1c4c(cc(OC)c(O)c4Oc4ccc(cc4)C[C@H]3N(C)CC2)CCN1C [L-curine]
inhibition at 0.49485 µM (GX_P2V [1]): 81.4%

COc1cc2c(cc1O)[C@@H](Cc1ccc(Oc3cc(C[C@@H]4c5cc(O)c(OC)cc5CCN4C)ccc3O)cc1)N(C)CC2 [Compound 32, guatteguamerine]
Antiviral activity (bioactivity) in dose-response analysis (GX_P2V [1]): lacked antiviral activity

COc1ccc(C[C@@H]2c3cc(Oc4cc(C[C@@H]5c6cc(OC)c(OC)cc6CCN5C)ccc4O)c(OC)cc3CCN2C)cc1 [Neferine (33), Neferine]
inhibition at 0.193 µM (GX_P2V [1]): 92.5%
inhibition at 0.495 µM (GX_P2V [1]): 91.2%
inhibition at 0.796 µM (GX_P2V [1]): 91.6%
inhibition at 1.097 µM (GX_P2V [1]): 100%
inhibition at 1.398 µM (GX_P2V [1]): 100%
inhibition at 1.699 µM (GX_P2V [1]): 100%
EC50 (GX_P2V [1]; [11]): 0.98 µM
EC50 (SARS-CoV-2 trVLP [10]): 6.24 µM

COc1cc2c(cc1O)[C@@H](Cc1ccc(O)cc1)N(C)CC2 [(R)-N-Methylcolaurine]
inhibition at 0.193125 µM (GX_P2V [1]): 25.6%
inhibition at 0.39 µM (GX_P2V [1]): 94.8%
inhibition at 0.49485 µM (GX_P2V [1]): 55.7%
inhibition at 0.79588 µM (GX_P2V [1]): 56.1%
cytotoxicity at 0.193125 µM (Vero E6 cells): 9.96%
cytotoxicity at 0.39 µM (Vero E6 cells): 22.3%
cytotoxicity at 0.49485 µM (Vero E6 cells): 20.1%
cytotoxicity at 0.78 µM (Vero E6 cells): 13.4%
cytotoxicity at 0.79588 µM (Vero E6 cells): 9.7%
cytotoxicity at 1.39794 µM (Vero E6 cells): 23.2%
